Assay results reported in ChEMBL document CHEMBL1121992, “Synthesis and topical antiinflammatory activity of some steroidal [16 alpha, 17 alpha-d]Isoxazolidines” (1982).

Tested on: Mus musculus
Experiment: Topical antiinflammatory activity in mice, expressed as potency was determined
Format: functional

| SMILES | Potency |
| --- | --- |
| CC(=O)OCC(=O)[C@@]12OC(C)(C)O[C@@H]1CC1C3CCC4=CC(=O)C=CC4(C)[C@H]3C(O)CC12C (some centres not stated) | 102 |
| CC(=O)OCC(=O)[C@@]12ON(Cc3ccccc3)C[C@@H]1CC1C3CCC4=CC(=O)C=CC4(C)[C@@]3(F)C(O)CC12C (some centres not stated) | 62 |
| CC(=O)OCC(=O)[C@@]12ON(Cc3ccccc3)C[C@@H]1CC1C3CCC4=CC(=O)C=CC4(C)[C@H]3C(O)CC12C (some centres not stated) | 69 |
| CC(=O)OCC(=O)[C@@]12ON(C)C[C@@H]1CC1C3CCC4=CC(=O)C=CC4(C)[C@H]3C(O)CC12C (some centres not stated) | 75 |
| CC(=O)OCC(=O)[C@@]12N=C(C)O[C@@H]1CC1C3CCC4=CC(=O)C=CC4(C)[C@@]3(F)C(O)CC12C (some centres not stated) | 104 |
| CC(=O)OCC(=O)[C@@]12ON(C)C[C@@H]1CC1C3CCC4=CC(=O)C=CC4(C)[C@@]3(F)C(O)CC12C (some centres not stated) | 156 |
| CC(=O)OCC(=O)[C@@]12OC(C)(C)O[C@@H]1CC1C3CCC4=CC(=O)C=CC4(C)[C@@]3(F)C(O)CC12C (some centres not stated) | 117 |
